ChEMBL document CHEMBL1201862, “PubChem BioAssay data set” (2004)
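Step 1: Grow cells in 96-well plates. Step 2: Expose to compound for 48 hours at 5 concentrations. Step 3: Interpolate endpoints linearly; if unreached, use highest concentration. GI50 marks 50% less growth.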 Calls of active or inactive are those of the source. Rule as the data show it: active = GI50 up to about 1.1 µM and inactive = higher.

Legend:
Experiment in all cases: NCI anticancer screen, dose series, 48 h
CAKI-1 = tested on: CAKI-1
SK-MEL-2 = tested on: SK-MEL-2
SNB-75 = tested on: SNB-75
SNB-19 = tested on: SNB-19
SF-539 = tested on: SF-539
786-0 = tested on: 786-0
KM-20L2 = tested on: KM-20L2
HCC 2998 = tested on: HCC 2998
KM12 = tested on: KM12
SK-OV-3 = tested on: SK-OV-3
UO-31 = tested on: UO-31
K562 = tested on: K562
RPMI-8226 = tested on: RPMI-8226
UACC-62 = tested on: UACC-62
LOX IMVI = tested on: LOX IMVI
BT-549 = tested on: BT-549
Hs-578T = tested on: Hs-578T
RXF 393 = tested on: RXF 393
DU-145 = tested on: DU-145
NCI/ADR-RES = tested on: NCI/ADR-RES

Measured: GI50

C/C(CN1C(=O)c2ccccc2C1=O)=N\NS(=O)(=O)c1ccccc1
inactive: CAKI-1 > 100 µM | SK-MEL-2 > 100 µM | SNB-75 > 100 µM | SNB-19 > 100 µM | SF-539 > 100 µM | 786-0 > 100 µM | KM-20L2 > 100 µM | HCC 2998 > 100 µM | KM12 > 100 µM | SK-OV-3 > 100 µM | UO-31 > 100 µM | K562 > 100 µM | RPMI-8226 > 100 µM | UACC-62 > 100 µM | LOX IMVI > 100 µM

O=c1ccn(/C=C/C(O)C(O)CO)c(=O)[nH]1 (configuration not stated)
inactive: CAKI-1 > 100 µM | SK-MEL-2 > 100 µM | SNB-75 > 100 µM | SNB-19 > 100 µM | SF-539 > 100 µM | 786-0 > 100 µM | KM-20L2 > 100 µM | HCC 2998 > 100 µM | KM12 21.7 µM | SK-OV-3 > 100 µM | UO-31 > 100 µM | K562 > 100 µM | RPMI-8226 > 100 µM | UACC-62 > 100 µM | LOX IMVI > 100 µM

Cc1ccc(Cc2c(=O)[nH]nc3ccccc23)cc1
inactive: CAKI-1 > 100 µM | SK-MEL-2 > 100 µM | SNB-75 79.8 µM | SNB-19 > 100 µM | SF-539 > 100 µM | 786-0 > 100 µM | KM-20L2 > 100 µM | HCC 2998 > 100 µM | KM12 > 100 µM | SK-OV-3 > 100 µM | UO-31 58.3 µM | K562 > 100 µM | RPMI-8226 > 100 µM | UACC-62 > 100 µM | LOX IMVI > 100 µM

CSc1nc2c(c(O)c(C)c(=O)n2C2OCC(OC(C)=O)C(OC(C)=O)C2OC(C)=O)c(=O)n1C (configuration not stated)
inactive: CAKI-1 > 100 µM | SK-MEL-2 > 100 µM | SNB-75 > 100 µM | SNB-19 > 100 µM | SF-539 > 100 µM | 786-0 > 100 µM | KM-20L2 > 100 µM | KM12 > 100 µM | SK-OV-3 > 100 µM | UO-31 > 100 µM | K562 > 100 µM | RPMI-8226 > 100 µM | UACC-62 > 100 µM | LOX IMVI > 100 µM

CCOC(=O)/C(O)=C(/C(=O)OC)c1ccc(Cl)cc1
inactive: CAKI-1 > 100 µM | SK-MEL-2 > 100 µM | SNB-75 > 100 µM | SNB-19 > 100 µM | SF-539 > 100 µM | 786-0 > 100 µM | KM-20L2 > 100 µM | HCC 2998 > 100 µM | KM12 > 100 µM | SK-OV-3 > 100 µM | UO-31 > 100 µM | K562 > 100 µM | RPMI-8226 > 100 µM | UACC-62 > 100 µM | LOX IMVI > 100 µM

CCC1CC(C)=CCN1S(=O)(=O)c1ccc(C)cc1 (configuration not stated)
inactive: CAKI-1 6.9 µM | SK-MEL-2 11 µM | SNB-75 13.9 µM | SNB-19 28.8 µM | SF-539 14.5 µM | 786-0 33.5 µM | KM-20L2 19.2 µM | KM12 23.4 µM | SK-OV-3 24.5 µM | UO-31 11.3 µM | K562 7.5 µM | RPMI-8226 3.89 µM | UACC-62 15.5 µM | LOX IMVI 15.9 µM

CN/C(=N\C#N)N(Cc1ccccc1)Cc1ccccc1
inactive: CAKI-1 > 100 µM | SK-MEL-2 > 100 µM | SNB-75 > 100 µM | SNB-19 > 100 µM | SF-539 > 100 µM | 786-0 > 100 µM | KM-20L2 > 100 µM | HCC 2998 > 100 µM | KM12 > 100 µM | SK-OV-3 > 100 µM | UO-31 > 100 µM | RPMI-8226 > 100 µM | UACC-62 > 100 µM | LOX IMVI > 100 µM

Cc1ccc(O)c(C(=O)/C=C/c2ccccc2)c1
inactive: CAKI-1 > 100 µM | SK-MEL-2 > 100 µM | SNB-75 49 µM | BT-549 > 100 µM | SNB-19 > 100 µM | SF-539 > 100 µM | Hs-578T 78 µM | 786-0 > 100 µM | RXF 393 > 100 µM | HCC 2998 > 100 µM | KM12 1.37 µM | SK-OV-3 > 100 µM | UO-31 > 100 µM | K562 > 100 µM | RPMI-8226 > 100 µM | UACC-62 > 100 µM | DU-145 > 100 µM | NCI/ADR-RES 53.5 µM | LOX IMVI > 100 µM

C[C@]12CCC(=O)C=C1CC[C@@H]1[C@@H]2CC[C@]2(C)C(=O)/C(=C/c3ccncc3)C[C@@H]12
inactive: CAKI-1 15.9 µM | SK-MEL-2 14.5 µM | SNB-75 19.6 µM | BT-549 19.2 µM | SNB-19 13.2 µM | SF-539 7.4 µM | Hs-578T 29.8 µM | 786-0 15.1 µM | RXF 393 15.6 µM | HCC 2998 16.7 µM | KM12 13.4 µM | SK-OV-3 20 µM | UO-31 12.6 µM | K562 11.7 µM | RPMI-8226 8.99 µM | UACC-62 12.7 µM | DU-145 14.5 µM | NCI/ADR-RES 26.2 µM | LOX IMVI 15.7 µM

O=C(NC1(C(=O)O)CC1c1ccccc1)c1ccccc1 (configuration not stated)
inactive: CAKI-1 > 100 µM | SK-MEL-2 > 100 µM | SNB-75 > 100 µM | BT-549 > 100 µM | SNB-19 > 100 µM | SF-539 > 100 µM | Hs-578T > 100 µM | 786-0 > 100 µM | RXF 393 > 100 µM | HCC 2998 > 100 µM | KM12 > 100 µM | SK-OV-3 > 100 µM | UO-31 > 100 µM | K562 > 100 µM | RPMI-8226 > 100 µM | UACC-62 > 100 µM | DU-145 > 100 µM | NCI/ADR-RES > 100 µM | LOX IMVI > 100 µM

CCCN(C(=O)c1c(Cl)nnc(Cl)c1C(=O)c1cc(Cl)nnc1Cl)c1cc(Cl)nnc1Cl
inactive: CAKI-1 7.23 µM | SK-MEL-2 14.4 µM | SNB-75 15.3 µM | BT-549 9.73 µM | SNB-19 27.8 µM | SF-539 7.28 µM | Hs-578T 3.24 µM | 786-0 5.46 µM | RXF 393 2.86 µM | HCC 2998 16.9 µM | KM12 11.5 µM | SK-OV-3 33.3 µM | UO-31 17 µM | K562 4.19 µM | RPMI-8226 3.65 µM | UACC-62 10.6 µM | DU-145 7.91 µM | NCI/ADR-RES 6.7 µM | LOX IMVI 5.47 µM

Cc1ccc(/N=C2/C(c3ccccc3)=C(SC3=C(c4ccccc4)/C(=N/c4ccc(C)cc4)c4ccccc43)c3ccccc32)cc1
inactive: CAKI-1 15.2 µM | SK-MEL-2 > 39.1 µM | SNB-75 8.63 µM | BT-549 23.7 µM | SNB-19 6.31 µM | SF-539 6.21 µM | Hs-578T 9.98 µM | 786-0 10.4 µM | RXF 393 12.4 µM | HCC 2998 > 37.9 µM | KM12 39.4 µM | SK-OV-3 15 µM | UO-31 15.6 µM | K562 32.4 µM | RPMI-8226 84.7 µM | UACC-62 16.7 µM | DU-145 32.1 µM | NCI/ADR-RES 22.1 µM | LOX IMVI 67.6 µM
